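1) Cells in 96-well plates. 2) Compound, 48 h, 5 concentrations. 3) Linear interpolation between surrounding doses. 4) Unreached endpoint = highest concentration. Definition used: TGI = concentration required for complete inhibition of growth.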
How the values were obtained:
Assay in all cases: inhibition of tumour cell growth, NCI panel, 48 h
[1] = test system: SK-OV-3 ovarian
[2] = test system: M14 melanoma
[3] = test system: MDA-N
[4] = test system: TK-10 renal
[5] = test system: CCRF-CEM leukemia
[6] = test system: DU-145 prostate
[7] = test system: HT29 colon
[8] = test system: CAKI-1 renal
[9] = test system: SN12C renal
[10] = test system: SNB-75 CNS
[11] = test system: OVCAR-5 ovarian
[12] = test system: MALME-3M melanoma
[13] = test system: MDA-MB-435
[14] = test system: COLO 205 colon
[15] = test system: HS 578T breast
[16] = test system: SF-295 CNS
[17] = test system: NCI-H460 lung
[18] = test system: SNB-19 CNS
[19] = test system: NCI-H522 lung

SMILES | TGI [1] [µM] | TGI [2] [µM] | TGI [3] [µM] | TGI [4] [µM] | TGI [5] [µM] | TGI [6] [µM] | TGI [7] [µM] | TGI [8] [µM] | TGI [9] [µM] | TGI [10] [µM] | TGI [11] [µM] | TGI [12] [µM] | TGI [13] [µM] | TGI [14] [µM] | TGI [15] [µM] | TGI [16] [µM] | TGI [17] [µM] | TGI [18] [µM] | TGI [19] [µM]
CC(C)COP(C)(=O)C(N)(C(F)(F)F)C(F)(F)F (configuration not stated) | > 100 | > 100 | > 100 | > 100 | > 100 | > 100 | > 100 | > 100 | > 100 | > 100 | > 100 | > 100 | > 100 | > 100 | > 100 | > 100 |  |  | 
CN1CCN(c2ccc3[nH]c(C4=C(O)C(=O)[C@@H]5C(=C4O)N=C(CO)N5C)nc3n2)CC1 | > 100 | > 100 |  |  | > 100 | > 100 | > 100 | > 100 | > 100 | > 100 | > 100 | > 100 | > 100 | > 100 | > 100 | > 100 | > 100 | > 100 | > 100
O=C1CCCC2=C1CC1=C(CCCC1=O)N2c1ccc([N+](=O)[O-])cc1 | > 100 | > 100 |  | > 100 | > 100 |  | > 100 | > 100 | > 100 | > 100 | > 100 |  |  |  | > 100 |  | > 100 | > 100 | 
COC(=O)[C@@H](OC(C)=O)[C@@H](OC(C)=O)c1nnc2ccc(Cl)nn12 | > 100 | > 100 | > 100 | > 100 | > 100 | > 100 | > 100 | > 100 | > 100 |  | > 100 | > 100 | > 100 | > 100 | > 100 | > 100 | > 100 | > 100 | 95.3
CCCCOC(=O)NC(Nc1ccc(S(=O)(=O)Nc2ncccn2)cc1)(C(F)(F)F)C(F)(F)F | > 100 | > 100 | > 100 | > 100 | > 100 | > 100 | > 100 | > 100 | > 100 |  | > 100 | > 100 | > 100 | > 100 | > 100 | > 100 | > 100 | > 100 | > 100
CCN(CC)C(=S)N/N=C/c1cc(OC)ccc1O | > 100 | 16.6 | > 100 | > 100 | 5.71 | > 100 | > 100 |  | 90.6 | > 100 | > 100 | > 100 | > 100 | > 100 | > 100 | > 100 | 14.3 | > 100 | > 100
S=C(Nc1ccc2c(c1)oc1ccccc12)c1cccs1 | > 100 | > 100 | > 100 | > 100 | > 100 | > 100 | > 100 | > 100 | > 100 |  | > 100 |  | > 100 | > 100 | > 100 | > 100 |  | > 100 | > 100
CC(C)OC(=O)NNc1cccc(Cl)c1 | > 100 | > 100 | > 100 | > 100 | > 100 | > 100 | > 100 | > 100 | > 100 | > 100 | > 100 | > 100 | > 100 | > 100 | > 100 | > 100 | > 100 | > 100 | 
Cc1cccc(N=C/C=C(\Cl)c2ccc3ccccc3c2)c1 | 53.5 | 38 |  | 50.8 |  | 36.9 | > 62.7 | 34.5 | 41.1 | > 58.2 | > 65.6 | 36.4 | 39.8 | 45.8 | > 96.7 | > 58.7 | > 80.9 | 33 | > 78.7
CCOC(=O)C1(C#N)C(C#N)(C#N)C1(C#N)C#N | > 100 | > 100 | > 100 | > 100 | > 100 | > 100 | > 100 | > 100 | > 100 |  | > 100 | > 100 | > 100 | > 100 | > 100 | > 100 | > 100 | > 100 | > 100
Cc1c(-c2nc(N)c(C#N)c(N)c2C#N)c(=O)oc2ccccc12 | > 100 | > 100 | > 100 | > 100 | > 100 | > 100 | > 100 | > 100 | > 100 | > 100 | > 100 | > 100 |  | > 100 | > 100 | > 100 | > 100 | > 100 | 
COc1ccc(NS(=O)c2c(C)cc(C)cc2C)cc1 (configuration not stated) |  | > 100 | > 100 | > 100 | > 100 | > 100 | > 100 |  | > 100 |  | > 100 | 49 | > 100 | > 100 | > 100 | > 100 | > 100 | > 100 | > 100
CC1CCC2CC1NC(=O)CCOCCC(=O)NC2(C)C (configuration not stated) | > 100 | > 100 | > 100 | > 100 | > 100 | > 100 | > 100 |  | > 100 | > 100 | > 100 |  | > 100 | > 100 |  | > 100 | > 100 | > 100 | > 100
COc1ccccc1NC(=O)C(=O)Cc1cnc2ccccc2n1 | > 100 | > 100 | > 100 |  | > 100 | > 100 | > 100 | > 100 | > 100 | > 100 | > 100 |  | > 100 | > 100 | > 100 | > 100 | > 100 | > 100 | 
O=C(Oc1c(Br)cc(Br)cc1C(=O)Oc1ccccc1)C(=O)Oc1c(Br)cc(Br)cc1C(=O)Oc1ccccc1 | > 100 | > 100 | 81.3 | > 100 |  | > 100 | > 100 | 57.9 | 97.4 |  | 89.9 | 59.2 | > 100 | 51.8 | > 100 | > 100 | > 100 | 64.8 | 32.6
Oc1c(Cl)c(Cl)c(O)c(CCNc2nccs2)c1Cl | 30.3 | 36 |  | 33 | > 100 | 19.8 | 51.8 | 29.3 | 49.2 | 42.3 | 39 | 54.9 | 41.8 | 57.9 |  | 41.5 | 41.1 | 44.1 | 
C/C(=N\O)C1CC2C=C(C#N)C1N(Cc1ccccc1)C2 (configuration not stated) | > 100 | > 100 | > 100 | > 100 | > 100 | > 100 | > 100 | > 100 | > 100 | > 100 | > 100 | > 100 | > 100 | > 100 | > 100 | > 100 | > 100 | > 100 | 
CCCCCCCc1cscc1-c1cscc1Br | > 100 | > 100 | > 100 | > 100 | 40.3 | > 100 |  | 91.2 | > 100 | 87 | 89.4 | > 100 | > 100 | 35.6 |  | 79.8 | > 100 | > 100 | 61.9
O=C(CCc1ccc(O)c(O)c1)NCCc1cc(O)c(O)c(O)c1 | > 100 | 48.1 | 30.6 | > 100 | > 100 | > 100 | 35.4 |  | 31.9 | > 100 | > 100 | > 100 | 31.8 | > 100 | > 100 | 33.3 | 40.8 | > 100 | 40.2
COC(=O)CC(CNC(=O)OCc1ccccc1)OCc1ccc(OC)cc1 (configuration not stated) | > 100 | > 100 | > 100 | > 100 | > 100 | > 100 |  | > 100 | > 100 | > 100 | > 100 | > 100 | > 100 | > 100 |  | > 100 | > 100 | > 100 | > 100
c1ccc2cc(CNCCCCNCCCNCc3ccc4ccccc4c3)ccc2c1 | 3.48 | 3.69 | 2.54 | 3.39 | > 100 | 2.53 | 0.538 | 3.31 | 0.879 | 2.95 | 3.61 | 3.28 | 3.1 |  | 1.26 | 2.96 | 0.338 | 2.8 | 2.78
O=C(O)C1=CN(c2ccncc2)C(c2ccco2)=CC1c1ccccc1[N+](=O)[O-] (configuration not stated) | 33.6 | 23.4 |  | 15.9 | > 100 | 26.7 | 6.18 | 34.1 | 29.1 | 22.1 | 25.5 | 26.4 | > 57.6 | 32.9 | 62.4 | 26.2 | 36.3 | 27.8 | 25.3
Fc1cccc(C2SCc3nc4cc5ccccc5cc4n32)c1 (configuration not stated) | > 100 | > 100 | > 100 | > 100 | > 100 | > 100 | > 100 | > 100 | > 100 | > 100 | > 100 | > 100 | > 100 | > 100 | > 100 | > 100 |  | > 100 | 
CC(Cc1cccc2c1Nc1ccccc1S2)N(C)CCO (configuration not stated) | > 100 | > 100 | > 100 | > 100 | > 100 | > 100 | > 100 | > 100 | > 100 |  | > 100 | > 100 | > 100 | > 100 | > 100 | > 100 | > 100 | > 100 | > 100
C=C(CCC/C(C)=C/C=C/[C@H](C)CCCc1ccoc1)C[C@@H]1OC(=O)[C@H](C)[C@@H]1O | 16.8 | 19.4 | 20.5 | 22.2 | 33.6 | 19 | 50 | 19.2 | 17.7 | 17.3 | 23.8 | 19.8 | 18.5 | 27.4 |  | 22.9 | 45 | 17.1 | 18.8
CSC1=C(C#N)C(=O)N(c2ccc(C)cc2)C(=O)C1C#N (configuration not stated) | > 100 | > 100 | > 100 | > 100 | > 100 | > 100 | > 100 | > 100 | > 100 |  | > 100 | > 100 | > 100 | > 100 | > 100 | > 100 | > 100 | > 100 | > 100
C/C1=C/C[C@@H](/C(C)=C/c2csc(C)n2)OC(=O)C[C@H](O)C(C)(C)C(=O)[C@H](C)[C@@H](O)[C@@H](C)CCC1 | 0.214 | 0.23 |  | 0.4 | 0.894 | < 0.0001 | 0.335 | 0.305 | 0.209 |  | 0.189 |  |  |  | < 0.0001 | < 0.0001 | 0.23 | 0.189 | < 0.0001
